Active and inactive are the calls of the source. The calls are words filed in the database; no cut-off is given here.
How the values were obtained:
[1] = biological target: T1, Serine/threonine-protein kinase PLK3 (Homo sapiens, UniProt Q9H4B4); test: Inhibition of AX-7503 binding to recombinant Plk3 expressed in HeLa cells by Western blot; type: cell-based
Target sequence in this assay (Q9H4B4 whole entry): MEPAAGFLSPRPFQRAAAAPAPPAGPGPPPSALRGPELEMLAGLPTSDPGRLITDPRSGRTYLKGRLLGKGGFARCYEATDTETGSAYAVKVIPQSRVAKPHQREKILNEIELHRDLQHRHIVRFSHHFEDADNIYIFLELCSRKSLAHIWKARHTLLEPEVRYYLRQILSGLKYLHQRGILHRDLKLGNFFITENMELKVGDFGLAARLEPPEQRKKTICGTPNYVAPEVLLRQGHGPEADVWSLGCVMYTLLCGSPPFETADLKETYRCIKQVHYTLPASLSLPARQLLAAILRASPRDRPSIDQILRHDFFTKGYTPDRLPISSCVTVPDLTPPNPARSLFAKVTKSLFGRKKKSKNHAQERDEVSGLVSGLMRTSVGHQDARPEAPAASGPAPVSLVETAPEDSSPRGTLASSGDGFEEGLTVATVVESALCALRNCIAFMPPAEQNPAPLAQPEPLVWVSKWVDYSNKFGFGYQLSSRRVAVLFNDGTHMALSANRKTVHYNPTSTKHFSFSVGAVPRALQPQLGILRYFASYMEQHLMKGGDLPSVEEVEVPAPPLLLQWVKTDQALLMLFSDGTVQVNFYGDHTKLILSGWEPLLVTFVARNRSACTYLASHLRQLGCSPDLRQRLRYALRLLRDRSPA

[2] = biological target: T1, Serine/threonine-protein kinase PLK3; test: Inhibition of recombinant Plk3 assessed as casein substrate phosphorylation
Target sequence in this assay (Q9H4B4 whole entry): as above

[3] = biological target: Serine/threonine-protein kinase PLK1 (Homo sapiens, UniProt P53350); test: Inhibition of AX-7503 binding to recombinant Plk1 by Western blot
Sequence of Serine/threonine-protein kinase PLK1 (P53350 whole entry): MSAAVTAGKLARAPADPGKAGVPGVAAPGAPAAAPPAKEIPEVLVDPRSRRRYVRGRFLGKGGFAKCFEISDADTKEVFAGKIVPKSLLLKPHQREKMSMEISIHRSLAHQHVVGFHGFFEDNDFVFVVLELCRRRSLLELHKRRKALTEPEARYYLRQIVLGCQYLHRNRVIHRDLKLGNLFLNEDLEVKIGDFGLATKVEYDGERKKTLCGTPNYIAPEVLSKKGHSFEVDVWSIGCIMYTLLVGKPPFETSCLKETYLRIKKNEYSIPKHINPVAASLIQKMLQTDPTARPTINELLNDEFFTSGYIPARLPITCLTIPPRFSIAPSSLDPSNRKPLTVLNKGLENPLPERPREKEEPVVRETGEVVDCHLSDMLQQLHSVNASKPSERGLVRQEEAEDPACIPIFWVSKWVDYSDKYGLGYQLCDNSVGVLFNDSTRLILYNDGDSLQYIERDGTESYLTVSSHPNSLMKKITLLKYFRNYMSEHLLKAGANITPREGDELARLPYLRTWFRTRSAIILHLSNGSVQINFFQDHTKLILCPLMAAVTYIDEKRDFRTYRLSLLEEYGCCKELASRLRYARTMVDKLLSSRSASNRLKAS

[4] = biological target: T1, Serine/threonine-protein kinase PLK3; test: Inhibition of recombinant Plk3 expressed in human GM00637 cells at 1 uM; type: cell-based
Target sequence in this assay (Q9H4B4 whole entry, looked up): as the sequence (Q9H4B4 whole entry) above

[5] = biological target: T1, Serine/threonine-protein kinase PLK3; test: Inhibition of recombinant Plk3 expressed in human GM00637 cells at 1 uM assessed as decrease in p53 serine-20 phosphorylation; type: cell-based
Target sequence in this assay (Q9H4B4 whole entry, looked up): as the sequence (Q9H4B4 whole entry) above

[6] = biological target: Serine/threonine-protein kinase PLK2 (Homo sapiens) (UniProt Q9NYY3); test: Inhibition of AX-7503 binding to recombinant Plk2 at 1 uM by Western blot
Sequence of Serine/threonine-protein kinase PLK2 (Homo sapiens) (Q9NYY3 whole entry, looked up): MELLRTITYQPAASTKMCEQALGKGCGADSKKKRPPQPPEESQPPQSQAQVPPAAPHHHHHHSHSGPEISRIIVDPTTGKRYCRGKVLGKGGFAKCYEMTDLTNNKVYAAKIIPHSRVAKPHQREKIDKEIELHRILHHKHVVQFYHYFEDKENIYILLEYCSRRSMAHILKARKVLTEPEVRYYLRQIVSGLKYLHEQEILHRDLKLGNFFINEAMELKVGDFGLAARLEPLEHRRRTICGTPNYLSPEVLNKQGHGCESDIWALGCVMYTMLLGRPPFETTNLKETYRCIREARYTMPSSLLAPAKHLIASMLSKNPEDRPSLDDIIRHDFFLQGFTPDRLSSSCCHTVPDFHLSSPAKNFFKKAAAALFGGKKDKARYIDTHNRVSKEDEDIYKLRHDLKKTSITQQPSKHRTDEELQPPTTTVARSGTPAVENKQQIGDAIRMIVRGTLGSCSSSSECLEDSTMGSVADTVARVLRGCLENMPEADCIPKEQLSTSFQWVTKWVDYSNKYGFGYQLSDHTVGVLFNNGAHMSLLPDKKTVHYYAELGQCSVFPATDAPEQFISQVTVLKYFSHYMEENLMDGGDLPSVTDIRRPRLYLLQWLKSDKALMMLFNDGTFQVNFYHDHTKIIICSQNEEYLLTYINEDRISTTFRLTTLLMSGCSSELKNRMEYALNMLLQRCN

[7] = biological target: T1, Serine/threonine-protein kinase PLK3; test: Inhibition of Plk3 in human A549 cells assessed as casein substrate phosphorylation by Western blot; type: cell-based
Target sequence in this assay (Q9H4B4 whole entry): as the sequence (Q9H4B4 whole entry) above

| SMILES | IC50 [1] [µM] | IC50 [2] [µM] | IC50 [3] [µM] | inhibition [4] [%] | Activity [5] | Activity [6] | IC50 [7] [µM] |
| --- | --- | --- | --- | --- | --- | --- | --- |
| O=c1cc(N2CCOCC2)oc2c(-c3ccccc3)cccc12 [LY-294002] | 3 | 88 | 2.1 | – | – | – | – |
| COC[C@H]1OC(=O)c2coc3c2[C@@]1(C)C1=C(C3=O)[C@@H]2CCC(=O)[C@@]2(C)C[C@H]1OC(C)=O [WORTMANNIN] | 0.049 | 0.048 | – | 75 | Active | Active | 0.22 |

From ChEMBL document CHEMBL1156422 (J Biol Chem, 2007)
